From patent US5527820A, “Antibiotics having immunosuppressive activity, delaminomycins and processes for the production of the same” (priority 1992, dated 1996)
In brackets after ≈: the same amount, converted by molar mass.

Key:
Mouse melanoma B-16 = test: Inhibitory activity on proliferation of cancer cells; format: cell-based; details: B16
Piricularia oryzae = test: microbe, parasite or virus in culture; format: cell-based; details: 42 h
Gram-positive bacteria = test: Antibacterial activity to Gram-positive bacteria; format: cell-based; details: result in words
Source text: (§1) Delaminomycins A, B, C, A2, B2 and C2 according to this invention further have an antibacterial activity against a variety of bacteria. The minimum growth inhibitory concentrations (MIC) (μg/ml) of the novel antibiotics of this invention on various bacteria and fungi as measured by the agar plate dilution method are shown in Table 5a, Table 5b, Table 5c and Table 5d below.

Candida krusei F-5 = test: MIC, agar plate dilution method; format: cell-based; details: Pichia kudriavzevii, F5; 27° C., 42 hours, nutrient agar containing glucose
[1] = test system: Cryptococcus neoformans F-10; test: MIC, agar plate dilution method; format: cell-based; details: F10, 27° C., 42 hours, nutrient agar containing glucose
[2] = Absorption into the digestive tracts on oral administration; details: result in words
Candida albicans 3147 = test: MIC, agar plate dilution method; format: cell-based; details: 27° C., 42 hours, nutrient agar containing glucose
[3] = test system: Saccharomyces cerevisiae F-7; test: MIC, agar plate dilution method; format: cell-based; details: F7, 27° C., 42 hours, nutrient agar containing glucose
[4] = test system: Trichophyton asteroides 429; test: MIC, agar plate dilution method; format: cell-based; details: 27° C., 42 hours, nutrient agar containing glucose
Mouse leukemia P388D1 = test: Inhibitory activity on proliferation of cancer cells; format: cell-based
Aspergillus niger F-16 = test: MIC, agar plate dilution method; format: cell-based; details: F16, 27° C., 42 hours, nutrient agar containing glucose
Candida Yu-1200 = test: MIC, agar plate dilution method; format: cell-based; details: YU1200, 27° C., 42 hours, nutrient agar containing glucose
Candida tropicalis F-1 = test: MIC, agar plate dilution method; format: cell-based; details: F1, 27° C., 42 hours, nutrient agar containing glucose
[5] = Acute toxicity (LD50) in ICR mice; details: mouse, in vivo, ip, intraperitoneally
Pellicularia sasakii = test: MIC, agar plate dilution method; format: cell-based; details: 27° C., 42 hours, nutrient agar containing glucose
Solubility = details: result in words; for Solubility: various solvents
Mouse leukemia EL-4 = test: Inhibitory activity on proliferation of cancer cells; format: cell-based; details: EL4
Mouse leukemia L-1210 = test: as above; format: cell-based; details: L1210
[6] = test system: Trichophyton mentagrophytes F-15 (833); test: MIC, agar plate dilution method; format: cell-based; details: 27° C., 42 hours, nutrient agar containing glucose
Xanthomonas citri = test: MIC, agar plate dilution method; format: cell-based; details: 27° C., 42 hours, nutrient agar containing glucose
Procedure: as §1
(§2) Evaluated after culturing at 27° C. for 42 hours in nutrient agar
(§3) medium containing glucose.

Cochliobolus miyabeanus = test: MIC, agar plate dilution method; format: cell-based; details: Bipolaris oryzae; 27° C., 42 hours, nutrient agar containing glucose
Procedure: as §1, §2, §3

[7] = test system: Candida pseudotropicalis F-2; test: MIC, agar plate dilution method; format: cell-based; details: Kluyveromyces marxianus, F2; 27° C., 42 hours, nutrient agar containing glucose
Human Lymphoma Jurkat = test: Inhibitory activity on proliferation of cancer cells; format: cell-based
[8] = test system: nylon wool-passed cells of spleen cells (responder cell; T cells); test: Inhibitory activity to the mixed lymphocyte culture reaction; format: cell-based, rat (Fischer F344 responder; WKY stimulator); details: for IC50: 120 hours, 3H-thymidine incorporation, read-out: IC50 (inhibition of mixed lymphocyte culture reaction); for activity to inhibit the proliferation of the T cells (responder cell) in mixed lymphocyte culture reaction: in vitro, result in words
[9] = test system: spleen cells (T cells activated by Concanavalin A); test: Inhibitory activity against blastogenesis and proliferation of spleen cells caused by mitogen (Con A); format: cell-based, mouse (CDF1); details: for IC50: read-out: IC50 (inhibition of blastogenesis and proliferation of spleen lymphocyte caused by Con A); for activity inhibitory to the reaction of proliferation of mouse spleen cells activated with Concanavalin A: in vitro, result in words
[10] = test system: delayed-type hypersensitivity (DTH); test: Suppressive effect on delayed-type hypersensitivity (DTH) in mouse, intraperitoneal; format: in vivo, mouse (CDF1); details: intraperitoneal once a day, 0-4th day
Source text: Suppressive effect of delaminomycins on delayed-type hypersensitivity (DTH) in mouse
CDF1 mice were immunized by intravenously injecting sheep red blood cells (10^5 cells/mouse). On the 4th day after the immunization, sheep red blood cells (10^8 cells/mouse) were subcutaneously injected into the footpad of mice for the elicitation to cause a delayed-type hypersensitivity (DTH). Test compound was intraperitoneally administered to the mice once a day from the 0th day to 4th day after the immunization. On the 5th day after the elicitation the thickness of the mouse footpad was measured to estimate the suppressive effect of the test compound on the DTH response. The suppressive effect of the test compound was evaluated in terms of the inhibition rate (%) as calculated according to the following equation:
(§4) Inhibition rate (%)=100-(T/C×100)
wherein T denotes the thickness of the footpad when administering the test compound, but C denotes the thickness of the footpad when administering no test compound.

[11] = test system: delayed-type hypersensitivity (DTH); test: Suppressive effect on delayed-type hypersensitivity (DTH) in mouse, oral; format: in vivo, mouse (CDF1); details: 2.0 mg/mouse, oral once a day, 0~4th day
Procedure: CDF1 mice were immunized by intravenously injecting sheep red blood cells (10^5 cells/mouse). On the 4th day after the immunization, sheep red blood cells (10^8 cells/mouse) were subcutaneously injected into the footpad of mice for the elicitation to cause a delayed-type hypersensitivity. Test compound was orally administered to the mice once a day from the 0 th day to the 4 th day after the immunization. On the 5th day after the elicitation, the thickness of the mouse footpad was measured to estimate the suppressive effect of the test compound on DTH. The suppressive effect of the test compound was evaluated in terms of the inhibition rate (%) as calculated according to the following equation:
as §4
wherein T denotes the thickness of the footpad when the test compound was administered, but C denotes the thickness of the footpad when no test compounnd was administered.

With CCC(O)C(C)/C=C/C=C/C(O)CC1C=CC2CC(C)CC(C)C2C1(C)C(=O)C1C(=O)NC(O)C1=O (stereo not shown) [Delaminomycin A] the IC50 (Mouse melanoma B-16) was 21.1 µg/mL (≈ 42.1 µM), the MIC (Piricularia oryzae) was over 100 µg/mL and the “antibacterial activity to Gram-positive bacteria” value (Gram-positive bacteria) was “antibacterial activity to Gram-positive bacteria”. The MIC (Candida krusei F-5) was over 100 µg/mL, the MIC [1] was over 100 µg/mL and the “absorption into the digestive tracts / oral absorption” value [2] was “hardly absorbed into the digestive tracts”. For the same compound, the MIC (Candida albicans 3147) was over 100 µg/mL, the MIC [3] was over 100 µg/mL and the MIC [4] was over 100 µg/mL. The IC50 (Mouse leukemia P388D1) was 14 µg/mL (≈ 27.9 µM), the MIC (Aspergillus niger F-16) was over 100 µg/mL and the MIC (Candida Yu-1200) was over 100 µg/mL. For the same compound, the MIC (Candida tropicalis F-1) was over 100 µg/mL, the LD50 [5] was over 500 mg/kg and the MIC (Pellicularia sasakii) was over 100 µg/mL. For the same compound, the Solubility (Solubility) was “soluble in methanol but slightly soluble or insoluble in water, acetone, ethyl ether and n-hexane”, the Solubility in water (Solubility) was “barely soluble in water” and the IC50 (Mouse leukemia EL-4) was 17.9 µg/mL (≈ 35.7 µM). The IC50 (Mouse leukemia L-1210) was over 100 µg/mL, the MIC [6] was over 100 µg/mL and the MIC (Xanthomonas citri) was over 100 µg/mL. It also gave an MIC (Cochliobolus miyabeanus) of over 100 µg/mL, an MIC [7] of over 100 µg/mL and an IC50 (Human Lymphoma Jurkat) of 3.6 µg/mL (≈ 7.18 µM). The inhibition at 0.1 µg/mL ([8]; Rattus norvegicus, T-cell, 0.10 μg/ml test compound, read-out: Inhibition rate) was 17.6%, the inhibition at 0.39 µg/mL ([8]; Rattus norvegicus, T-cell, 0.39 μg/ml test compound, read-out: Inhibition rate) was 32.8% and the inhibition at 1.56 µg/mL ([8]; Rattus norvegicus, T-cell, 1.56 μg/ml test compound, read-out: Inhibition rate) was 17.5%. It also gave an inhibition at 6.25 µg/mL ([8]; Rattus norvegicus, T-cell, 6.25 μg/ml test compound, read-out: Inhibition rate) of 55.3%, an inhibition at 25 µg/mL ([8]; Rattus norvegicus, T-cell, 25 μg/ml test compound, read-out: Inhibition rate) of 95% and an inhibition at 100 µg/mL ([8]; Rattus norvegicus, T-cell, 100 μg/ml test compound, read-out: Inhibition rate) of 96.4%. The IC50 ([8]; Rattus norvegicus, T-cell) was 8.6 µg/mL (≈ 17.1 µM), the “activity to inhibit the proliferation of the T cells (responder cell) in mixed lymphocyte culture reaction” value [8] was “have an activity to inhibit the reaction of proliferation of the T cells” and the IC50 ([9]; Mus musculus, T-cell) was 17.5 µg/mL (≈ 34.9 µM). The inhibition at 1.56 µg/mL ([9]; Mus musculus, T-cell, 1.56 μg/ml test compound, read-out: Inhibition rate) was 0%, the inhibition at 6.25 µg/mL ([9]; Mus musculus, T-cell, 6.25 μg/ml test compound, read-out: Inhibition rate) was 31% and the inhibition at 25 µg/mL ([9]; Mus musculus, T-cell, 25 μg/ml test compound, read-out: Inhibition rate) was 57%. The inhibition at 100 µg/mL ([9]; Mus musculus, T-cell, 100 μg/ml test compound, read-out: Inhibition rate) was 88%, the “activity inhibitory to the reaction of proliferation of mouse spleen cells activated with Concanavalin A” value [9] was “exhibit an activity inhibitory to the reaction of proliferation of mouse spleen cells” and the “Inhibition rate (DTH footpad thickness)” value ([10]; 15.6 μg/mouse) was 0.1%. The “Inhibition rate (DTH footpad thickness)” value ([10]; 62.5 μg/mouse) was 52.8%, the “Inhibition rate (DTH footpad thickness)” value ([10]; 250 μg/mouse) was 85.3% and the “Inhibition rate (DTH footpad thickness)” value ([10]; 1000 μg/mouse) was 99.2%.

In the case of CCC(O)C(C)/C=C/C=C/C1CC2C=CC3CC(C)CC(C)C3C2(C)C(=O)C12C(=O)NC(OC)C2=O (stereo not shown) [Delaminomycin B2], the IC50 (Mouse melanoma B-16) is reported as 17.9 µg/mL (≈ 36 µM), the MIC (Piricularia oryzae) is reported as over 100 µg/mL and the “antibacterial activity to Gram-positive bacteria” value (Gram-positive bacteria) is reported as “antibacterial activity to Gram-positive bacteria”. The MIC (Candida krusei F-5) was over 100 µg/mL, the “Inhibition rate (DTH footpad thickness)” value [11] was 18.4% and the MIC [1] was over 100 µg/mL. For the same compound, the “absorption into the digestive tracts / oral absorption” value [2] was “hardly absorbed into the digestive tracts”, the MIC (Candida albicans 3147) was over 100 µg/mL and the MIC [3] was over 100 µg/mL. For the same compound, the MIC [4] was over 100 µg/mL, the IC50 (Mouse leukemia P388D1) was 12.1 µg/mL (≈ 24.3 µM) and the MIC (Aspergillus niger F-16) was over 100 µg/mL. It also gave an MIC (Candida Yu-1200) of over 100 µg/mL, an MIC (Candida tropicalis F-1) of over 100 µg/mL and an MIC (Pellicularia sasakii) of over 50 µg/mL. The Solubility (Solubility) was “soluble in methanol, ethyl acetate, chloroform and ethyl ether but slightly soluble or insoluble in n-hexane and water”, the Solubility in water (Solubility) was “barely soluble in water” and the IC50 (Mouse leukemia EL-4) was 6.8 µg/mL (≈ 13.7 µM). For the same compound, the IC50 (Mouse leukemia L-1210) was 8 µg/mL (≈ 16.1 µM), the MIC [6] was over 100 µg/mL and the MIC (Xanthomonas citri) was over 100 µg/mL. For the same compound, the MIC (Cochliobolus miyabeanus) was over 100 µg/mL, the MIC [7] was over 100 µg/mL and the IC50 (Human Lymphoma Jurkat) was 11.4 µg/mL (≈ 22.9 µM). For the same compound, the inhibition at 0.05 µg/mL ([8]; Rattus norvegicus, T-cell, 0.05 μg/ml test compound, read-out: Inhibition rate) was 0%, the inhibition at 0.2 µg/mL ([8]; Rattus norvegicus, T-cell, 0.20 μg/ml test compound, read-out: Inhibition rate) was 12.3% and the inhibition at 0.78 µg/mL ([8]; Rattus norvegicus, T-cell, 0.78 μg/ml test compound, read-out: Inhibition rate) was 47.6%. The inhibition at 3.1 µg/mL ([8]; Rattus norvegicus, T-cell, 3.1 μg/ml test compound, read-out: Inhibition rate) was 92.7%, the inhibition at 12.5 µg/mL ([8]; Rattus norvegicus, T-cell, 12.5 μg/ml test compound, read-out: Inhibition rate) was 94.1% and the inhibition at 50 µg/mL ([8]; Rattus norvegicus, T-cell, 50 μg/ml test compound, read-out: Inhibition rate) was 96.7%. For the same compound, the IC50 ([8]; Rattus norvegicus, T-cell) was 8.6 µg/mL (≈ 17.3 µM), the “activity to inhibit the proliferation of the T cells (responder cell) in mixed lymphocyte culture reaction” value [8] was “have an activity to inhibit the reaction of proliferation of the T cells” and the IC50 ([9]; Mus musculus, T-cell) was 0.85 µg/mL (≈ 1.71 µM). It also gave an inhibition at 0.2 µg/mL ([9]; Mus musculus, T-cell, 0.20 μg/ml test compound, read-out: Inhibition rate) of 12.3%, an inhibition at 0.78 µg/mL ([9]; Mus musculus, T-cell, 0.78 μg/ml test compound, read-out: Inhibition rate) of 47.6% and an inhibition at 3.1 µg/mL ([9]; Mus musculus, T-cell, 3.1 μg/ml test compound, read-out: Inhibition rate) of 92.7%. The inhibition at 12.5 µg/mL ([9]; Mus musculus, T-cell, 12.5 μg/ml test compound, read-out: Inhibition rate) was 94.1%, the inhibition at 50 µg/mL ([9]; Mus musculus, T-cell, 50 μg/ml test compound, read-out: Inhibition rate) was 96.7% and the “activity inhibitory to the reaction of proliferation of mouse spleen cells activated with Concanavalin A” value [9] was “exhibit an activity inhibitory to the reaction of proliferation of mouse spleen cells”. For the same compound, the “Inhibition rate (DTH footpad thickness)” value ([10]; 15.6 μg/mouse) was -3.3%, the “Inhibition rate (DTH footpad thickness)” value ([10]; 62.5 μg/mouse) was 35.4% and the “Inhibition rate (DTH footpad thickness)” value ([10]; 250 μg/mouse) was 36.2%. The “Inhibition rate (DTH footpad thickness)” value ([10]; 1000 μg/mouse) was 51.3%.
